Literature values, collected in publication PMC8278929 (Chemical Science, 2021).
Blank lines part the entries; values can stand above or below the molecule they belong to.

Tests used:
[1] = in PBS, Os/pyr/for 1:200:400
[2] = analogue of 11
[3] = free, uncoordinated alcohol, no reference given

Molecule: [Os(η^6-p-cymene)(TsDPEN)]
TOFmax [1]: 1.5 h⁻¹

ΔS^‡ (entropy of hydrolysis) [2]: −55.6 ± 1.6 J K^−1 mol^−1
Molecule: [Os(η^6-C6H5C6H5)(4-Me-pico)Cl]^+

estimated pKa [3]: ca. 16
Molecule: OCCCc1ccccc1 [3-phenyl-1-propanol]
